The values below come from patent US20110251379A1, “COMPOUNDS USEFUL FOR TREATING NEURODEGENERATIVE DISORDERS” (Satori Pharmaceuticals, Inc., priority 2010, published 2011).

Where two headings read alike, the source gives them in different places.

Holding throughout (type): cell-based
In experiment [1] the test system is Aβ-38. Description: MSD Human (6E10) Ab 3-PLEX elisa, conditioned media of 2B7 cells: Aβ-38. As to conditions: for IC50: Aβ-38 (superscript a). The essentials:
(§1)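 Read-out is MSD electrochemiluminescence of secreted Aβ peptides in 2B7 conditioned media after 5 hours of compound exposure at 37° C in 1% DMSO. Concentrations come from seven-point standard curves, and IC50 values from 4-parameter fits of percent vehicle.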

In experiment [2] the test system is Aβ-40. Description: MSD Human (6E10) Ab 3-PLEX elisa, conditioned media of 2B7 cells: Aβ-40. As to conditions: for IC50: Aβ-40 (superscript b). The essentials:
as §1

Experiment [3] deals with Aβ-42. Description: MSD Human (6E10) Ab 3-PLEX elisa, conditioned media of 2B7 cells: Aβ-42. To be noted: for IC50: Aβ-42 (superscript c). Summed up:
as §1

[4] abbreviates: Homo sapiens, read-out: 50% reduction value.
Where [5] appears, read: Homo sapiens, read-out: IC50 range.

`CC(=O)N(Cc1ccccc1)CC1CC(C)C2C(O1)C(O)C1(C)C3CCC4C(C)(C)C(O)CCC45CC35CCC21C` (stereo not shown) [drawing 1207]: the IC50 in experiment [1] (read-out: 50% reduction value) was 1000 to 10000 nM; in experiment [2] (read-out: 50% reduction value), 1 to 10 µM; in experiment [3] (read-out: 50% reduction value) it was 1000 to 10000 nM; in experiment [3] (read-out: IC50 range), under 1000 nM.
Consider `CC1CC(C(=O)O)OC2C1C1(C)CCC34CC35CCC(O)C(C)(C)C5CCC4C1(C)C2O` (stereo not shown) [drawing 1208], for which the “% Inh. (range)” value is “F^a (20 μM) F^b (20 μM) F^c (20 μM) (% inhibition of <25%)” in experiment [1] (Aβ-38, 20 μM); “F^a (20 μM) F^b (20 μM) F^c (20 μM) (% inhibition of <25%)” in experiment [2] (Aβ-40, 20 μM); “F^a (20 μM) F^b (20 μM) F^c (20 μM) (% inhibition of <25%)” in experiment [3] (Aβ-42, 20 μM).
Turning to `CCC(=O)OC(C1CC(C)C2C(O1)C(O)C1(C)C3CCC4C(C)(C)C(OC5CN(C6COC6)CCO5)CCC45CC35CCC21C)C(C)(C)O` (stereo not shown) [drawing 1209], the IC50 is under 1000 nM in experiment [1] (read-out: 50% reduction value); under 1000 nM in experiment [1] (read-out: IC50 range); 1 to 10 µM in experiment [2] (read-out: 50% reduction value); 1 to 10 µM in experiment [2] (read-out: IC50 range); under 1000 nM in experiment [3] (read-out: 50% reduction value).
Regarding `CC(=O)OCC1CC(C)C2C(O1)C(O)C1(C)C3CCC4C(C)(C)C(OC(=O)c5cccnc5)CCC45CC35CCC21C` (stereo not shown) [drawing 1210], the IC50 in experiment [1] (read-out: 50% reduction value) is 1000 to 10000 nM; in experiment [2] (read-out: 50% reduction value) it was 1 to 10 µM; in experiment [2] (read-out: IC50 range), over 10 µM; in experiment [3] (read-out: 50% reduction value), 1000 to 10000 nM; in experiment [3] (read-out: IC50 range), 1000 to 10000 nM.
Consider `CC(=O)N(Cc1cc(F)cc(F)c1)CC1CC(C)C2C(O1)C(O)C1(C)C3CCC4C(C)(C)C(O)CCC45CC35CCC21C` (stereo not shown) [drawing 1211], for which the IC50 in experiment [1] (read-out: 50% reduction value) is 1000 to 10000 nM; in experiment [2] (read-out: 50% reduction value), over 10 µM; in experiment [3] (read-out: 50% reduction value), 1000 to 10000 nM.
For the compound `CC(=O)N(Cc1ccccn1)CC1CC(C)C2C(O1)C(O)C1(C)C3CCC4C(C)(C)C(O)CCC45CC35CCC21C` (stereo not shown) [drawing 1212], the IC50 is over 10000 nM in experiment [1] (read-out: 50% reduction value), over 10 µM in experiment [2] (read-out: 50% reduction value) and over 10000 nM in experiment [3] (read-out: 50% reduction value).
Take `CC(=O)N(CC1CC(C)C2C(O1)C(O)C1(C)C3CCC4C(C)(C)C(O)CCC45CC35CCC21C)C(C)C` (stereo not shown) [drawing 1213]: the IC50 in experiment [1] (read-out: 50% reduction value) fell in the range of 1000 to 10000 nM. In addition, the “% Inh. (range)” value is recorded as “E^b (100 μM) E^c (100 μM) (% inhibition of 25-75%)” in experiment [2] (Aβ-40, 100 μM) and “E^b (100 μM) E^c (100 μM) (% inhibition of 25-75%)” in experiment [3] (Aβ-42, 100 μM).
`CC1CC(C(OC(=O)C2CC2)C(C)(C)O)OC2C1C1(C)CCC34CC35CCC(O)C(C)(C)C5CCC4C1(C)C2O` (stereo not shown) [drawing 1214]: the IC50 in experiment [1] (read-out: 50% reduction value) was 1000 to 10000 nM; in experiment [2] (read-out: 50% reduction value), 1 to 10 µM; in experiment [3] (read-out: 50% reduction value) it was under 1000 nM.
On to `CC(=O)N(Cc1cc(F)cc(F)c1)CC1CC(C)C2C(O1)C(O)C1(C)C3CCC4C(C)(C)C(OC(=O)C5CNC5)CCC45CC35CCC21C` (stereo not shown) [drawing 1215], for which the IC50 was in the range of 1000 to 10000 nM in experiment [1] (read-out: 50% reduction value); 1000 to 10000 nM in experiment [1] (read-out: IC50 range); 1 to 10 µM in experiment [2] (read-out: 50% reduction value); 1 to 10 µM in experiment [2] (read-out: IC50 range); 1000 to 10000 nM in experiment [3] (read-out: 50% reduction value); 1000 to 10000 nM in experiment [3] (read-out: IC50 range).
With `CC1CC(C(OC(=O)C2CCC2)C(C)(C)O)OC2C1C1(C)CCC34CC35CCC(O)C(C)(C)C5CCC4C1(C)C2O` (stereo not shown) [drawing 1216], the IC50 in experiment [1] (read-out: 50% reduction value) was 1000 to 10000 nM; in experiment [2] (read-out: 50% reduction value), 1 to 10 µM; in experiment [3] (read-out: 50% reduction value), under 1000 nM.
As to `CC1CC(C(OC(=O)N(C)C)C(C)(C)O)OC2C1C1(C)CCC34CC35CCC(O)C(C)(C)C5CCC4C1(C)C2O` (stereo not shown) [drawing 1217], the IC50 in experiment [1] (read-out: 50% reduction value) lay in the range of 1000 to 10000 nM. The “% Inh. (range)” value in experiment [2] (Aβ-40, 20 μM) is listed as “E^b (20 μM) E^c (20 μM) (% inhibition of 25-75%)”; in experiment [3] (Aβ-42, 20 μM), “E^b (20 μM) E^c (20 μM) (% inhibition of 25-75%)”.
In the case of `CC1CC(C(=O)C(C)(C)O)OC2C1C1(C)CCC34CC35CCC(O)C(C)(C)C5CCC4C1(C)C2O` (stereo not shown) [drawing 1218], the IC50 in experiment [1] (read-out: 50% reduction value) was 1000 to 10000 nM. The “% Inh. (range)” value in experiment [2] (Aβ-40, 20 μM) is given as “E (% inhibition of 25-75%)”; in experiment [3] (Aβ-42, 20 μM), “F (% inhibition of <25%)”.
Regarding `CC1CC(C(OC(=O)C2CCC2)C(C)(C)O)OC2C1C1(C)CCC34CC35CCC(OC3CN(C6COC6)CCO3)C(C)(C)C5CCC4C1(C)C2O` (stereo not shown) [drawing 1219], the IC50 in experiment [1] (read-out: 50% reduction value) was under 1000 nM; in experiment [1] (read-out: IC50 range), under 1000 nM; in experiment [2] (read-out: 50% reduction value) it was under 1 µM; in experiment [3] (read-out: 50% reduction value), under 1000 nM.
Consider `CC(C)C(=O)OC(C1CC(C)C2C(O1)C(O)C1(C)C3CCC4C(C)(C)C(OC5CN(C6COC6)CCO5)CCC45CC35CCC21C)C(C)(C)O` (stereo not shown) [drawing 1220], for which the IC50 is under 1000 nM in experiment [1] (read-out: 50% reduction value), under 1000 nM in experiment [1] (read-out: IC50 range), 1 to 10 µM in experiment [2] (read-out: 50% reduction value) and under 1000 nM in experiment [3] (read-out: 50% reduction value).
With `CC(=O)O[C@@H]([C@H]1C[C@@H](C)C2C(O1)C(=O)[C@@]1(C)[C@@H]3CC[C@H]4C(C)(C)[C@@H](O[C@@H]5OC[C@@H](O)[C@H](O)[C@H]5O)CC[C@@]45C[C@@]35CC[C@]21C)C(C)(C)O` (stereo partly shown) [drawing 1230], the IC50 was 1000 to 10000 nM in experiment [1] (setting [4]); 1000 to 10000 nM in experiment [1] (setting [5]); 1 to 10 µM in experiment [2] (setting [4]); over 10000 nM in experiment [3] (setting [4]); under 1000 nM in experiment [3] (setting [5]).
Consider `CC(=O)O[C@@H]([C@H]1C[C@@H](C)C2C(O1)[C@H](O)[C@@]1(C)[C@@H]3CC[C@H]4C(C)(C)[C@@H](O)CC[C@@]45C[C@@]35CC[C@]21C)C(C)(C)O` (stereo partly shown) [drawing 1231], for which the IC50 in experiment [1] (setting [4]) and in experiment [3] (setting [4]) was 1000 to 10000 nM in each case. The inhibition at 20 µM in experiment [2] (Homo sapiens, Aβ-40, 20 μM) is 25 to 75%.
Consider `CCO[C@@H](C1C[C@@H](C)[C@H]2C(O1)[C@H](O)[C@@]1(C)C3CC[C@H]4C(C)(C)C(OC5CN(Cc6ccccc6)CCO5)CC[C@@]45C[C@@]35CC[C@]21C)C(C)(C)O` (stereo partly shown) [drawing 1282], for which the IC50 is 1000 to 10000 nM in experiment [1] (setting [4]); 1000 to 10000 nM in experiment [1] (setting [5]); 1 to 10 µM in experiment [2] (setting [4]); 1000 to 10000 nM in experiment [3] (setting [4]); 1000 to 10000 nM in experiment [3] (setting [5]).
Regarding `CCO[C@@H](C1C[C@@H](C)[C@H]2C(O1)[C@H](O)[C@@]1(C)C3CC[C@H]4C(C)(C)C(OC(=O)NC5CCNC5=O)CC[C@@]45C[C@@]35CC[C@]21C)C(C)(C)O` (stereo partly shown) [drawing 1289], the IC50 in experiment [1] (setting [4]) was under 1000 nM; in experiment [2] (read-out: IC50 range), 1 to 10 µM; in experiment [2] (setting [4]), 1 to 10 µM; in experiment [3] (setting [4]) it was under 1000 nM; in experiment [3] (setting [5]), under 1000 nM.
As for `CCO[C@@H](C1C[C@@H](C)[C@H]2C(O1)[C@H](O)[C@@]1(C)C3CC[C@H]4C(C)(C)C(OC(=O)NC5CCNC5=O)CC[C@@]45C[C@@]35CC[C@]21C)C(C)(C)O` (stereo partly shown) [drawing 1290], the IC50 is under 1000 nM in experiment [1] (read-out: 50% reduction value); under 1000 nM in experiment [1] (setting [5]); 1 to 10 µM in experiment [2] (read-out: 50% reduction value); over 10 µM in experiment [2] (read-out: IC50 range); under 1000 nM in experiment [3] (read-out: 50% reduction value); under 1000 nM in experiment [3] (read-out: IC50 range).
In the case of `CCO[C@@H](C1C[C@@H](C)[C@H]2C(O1)[C@H](O)[C@@]1(C)C3CC[C@H]4C(C)(C)C(OC5CN(Cc6ccccc6)CCO5)CC[C@@]45C[C@@]35CC[C@]21C)C(C)(C)O` (stereo partly shown) [drawing 1307], the IC50 in experiment [1] (read-out: IC50 range) was 1000 to 10000 nM; in experiment [2] (read-out: 50% reduction value), 1 to 10 µM; in experiment [3] (read-out: IC50 range), 1000 to 10000 nM.

Broadly, the inhibition is the drop in the measured response relative to a control, in per cent. Lower therefore signals a response near the control.
